{"source": "patent US20200022963A1", "about": "“PHARMACEUTICAL COMPOSITION COMPRISING BETAHISTINE” (Otolanum AG, priority 2017, published 2020)", "key": {"[1]": {"experiment": "Single ascending-dose clinical trial of intranasal betahistine in healthy volunteers (plasma pharmacokinetics, LC-MS/MS)", "details": "human; for half-life / AUC / AUC(0-inf) / AUC(0-t) / Cmax / Tmax: both, plasma, inhaled or intranasal", "quoted_text": "The safety and pharmacokinetic profile of intranasal betahistine was further evaluated in a double-blind, randomized, placebo-controlled, single ascending-dose clinical trial involving a total of 32 healthy male and female volunteers. The main inclusion criteria were that subjects had to be aged 18-45 years and show a body mass index within the range of 18-30 kg/m^2. Subjects were required to fast for 8 hours prior to study drug administration and for 2 hours post-dose.\nThe betahistine was supplied as a 50 and 200 mg/mL solution in a HDPE bottle and spray pump pack (Aptar Classic Line) that delivers an accurate 100 μL per actuation. The study drug was delivered into the right nostril of subjects while they were in a supine position. For the 5 and 20 mg doses, one application of 50 and 200 mg/mL, respectively, was needed, whereas for the 10 and 40 mg doses, two applications of 50 and 200 mg/mL were required.\nSerial blood samples were collected through 24 hours, following dosing on Day 1, at Day 4 and Day 7 to determine concentrations of betahistine and its main metabolite, 2-PAA in plasma. Plasma samples were assayed for BH content using validated procedures and methods. Blood samples (6 mL) were collected into tubes containing K2EDTA and were centrifuged at approximately 2000 g for 10 minutes at +4° C. and the resultant plasma transferred into 2 clean, labelled 2 mL cryovials. All plasma samples were stored at −70° C. or below until all samples had been collected and sent as a single batch for analysis. […] Concentrations were determined using liquid chromatographic tandem mass spectrometry (LC-MS/MS; SCIEX API 5000 for betahistine and SCIEX API 4000 for 2-PAA) with a validated method. Betahistine-^13CD3 dihydrochloride and 2-PAA-D4 hydrochloride served as internal standards. The standard calibration range—using a plasma sample volume of 0.2 and 0.1 mL, respectively—for betahistine was 10 to 800 pg/mL and for 2-PAA it was 2 to 2000 ng/mL. The limit of quantitation was 10 pg/mL for betahistine and 2.0 ng/mL for 2-PAA.\nIn case of betahistine, the method involved a liquid-liquid extraction; in case of 2-PAA it involved protein precipitation. For betahistine, plasma samples were extracted under basic conditions with an organic solvent; the organic phase was dried and reconstituted in reconstitution solvent. Approximately 0.120 mL of the aqueous layer was transferred into polypropylene vials for LC-MS/MS analysis. For 2-PAA plasma samples were precipitated with a mixture of organic solvents, supernatant was diluted and 0.120 mL was transferred into polypropylene vials for LC-MS/MS analysis. Sample analysis was conducted using reversed phase chromatography.\nFor each subject who completed the study, plasma concentration-time data of betahistine and 2-PAA were used for the calculation of the following pharmacokinetic parameters: • Cmax Maximum observed plasma concentration obtained directly from the data. • tmax Time to maximum observed concentration, taken directly from the data. If the maximum plasma concentration occurred at more than one time point, the first was chosen. • AUC0-last Area under the plasma concentration versus time curve, calculated using the linear trapezoidal rule from time 0 to time t, where t is the time of last quantifiable concentration. • λz Terminal elimination rate constant obtained from the slope of the line, fitted by linear least squares regression through the terminal points of the logarithmic concentration-time profiles (sometimes also referred to as kel). • AUC0-inf Area under the plasma concentration versus time curve from zero to infinity, calculated as (AUC0-t+Ct/λz), where Ct is the last quantifiable concentration. • t1/2 Apparent terminal half-life, calculated as t1/2=ln(2)/λz.\nDose normalized parameters Cmax/Dose and AUC/Dose were also calculated."}, "[2]": {"experiment": "Tolerability of intranasal betahistine in beagle dogs, Example 5", "format": "in vivo", "details": "dog", "method": "In this study, the pharmacokinetic profile of betahistine was evaluated after a single dose administration of betahistine in male and female beagle dogs (age 5-7 months; weight of 5-11 kg, within a range of 3 kg for each sex) for three routes of administration: oral, intranasal, and intravenous.\nOn Day 8 of the study, the animals that received oral BH at a dose of 12 mg/kg were administered the test betahistine composition intranasally at a dose of 40 mg betahistine dihydrochloride; the animals that received oral BH at a dose of 24 mg/kg were administered the test betahistine composition intranasally at a dose of 80 mg betahistine dihydrochloride; and the animals that received oral BH at a dose of 48 mg/kg were administered the test betahistine composition intranasally at a dose of 120 mg betahistine dihydrochloride. The test betahistine composition was delivered intranasally in a single dose via an Aptar nasal spray pump device at a total dose level of 40, 80 and 120 mg of betahistine dihydrochloride. Plasma samples were collected prior to dosing, and then at 5, 10, 20 and 30 min, 1, 2, 3, 6, 24 hours after dosing."}, "[3]": {"details": "human, cited from earlier work"}}, "note": "Where two headings read alike, the source gives them in different places."}
{"smiles": "CNCCc1ccccn1", "note": "[betahistine]", "values": [{"measurement": "half-life", "setting": "[1]", "value": "< 60", "unit": "min"}, {"measurement": "AUC", "setting": "[1]; 0.07 mg/kg", "value": 0.209, "unit": "ng·h/mL"}, {"measurement": "AUC", "setting": "[1]; 0.15 mg/kg", "value": 0.533, "unit": "ng·h/mL"}, {"measurement": "AUC", "setting": "[1]; 0.29 mg/kg", "value": 1.61, "unit": "ng·h/mL"}, {"measurement": "AUC", "setting": "[1]; 0.57 mg/kg", "value": 3.53, "unit": "ng·h/mL"}, {"measurement": "AUC(0-inf)", "setting": "[1]; 5 mg", "value": 0.277, "unit": "ng·h/mL"}, {"measurement": "AUC(0-t)", "setting": "[1]; 5 mg", "value": 0.209, "unit": "ng·h/mL"}, {"measurement": "Cmax", "setting": "[1]; 5 mg", "value": 0.638, "unit": "ng/mL"}, {"measurement": "Tmax", "setting": "[1]; 5 mg", "value": 12.5, "unit": "min"}, {"measurement": "half-life", "setting": "[1]; 5 mg", "value": 12.5, "unit": "min"}, {"measurement": "AUC(0-inf)", "setting": "[1]; 10 mg", "value": 0.697, "unit": "ng·h/mL"}, {"measurement": "AUC(0-t)", "setting": "[1]; 10 mg", "value": 0.533, "unit": "ng·h/mL"}, {"measurement": "Cmax", "setting": "[1]; 10 mg", "value": 2.11, "unit": "ng/mL"}, {"measurement": "Tmax", "setting": "[1]; 10 mg", "value": 10, "unit": "min"}, {"measurement": "half-life", "setting": "[1]; 10 mg", "value": 53, "unit": "min"}, {"measurement": "AUC(0-inf)", "setting": "[1]; 20 mg", "value": 1.63, "unit": "ng·h/mL"}, {"measurement": "AUC(0-t)", "setting": "[1]; 20 mg", "value": 1.61, "unit": "ng·h/mL"}, {"measurement": "Cmax", "setting": "[1]; 20 mg", "value": 4.11, "unit": "ng/mL"}, {"measurement": "Tmax", "setting": "[1]; 20 mg", "value": 10, "unit": "min"}, {"measurement": "half-life", "setting": "[1]; 20 mg", "value": 31.1, "unit": "min"}, {"measurement": "AUC(0-inf)", "setting": "[1]; 40 mg", "value": 2.94, "unit": "ng·h/mL"}, {"measurement": "AUC(0-t)", "setting": "[1]; 40 mg", "value": 3.53, "unit": "ng·h/mL"}, {"measurement": "Cmax", "setting": "[1]; 40 mg", "value": 10.5, "unit": "ng/mL"}, {"measurement": "Tmax", "setting": "[1]; 40 mg", "value": 7.5, "unit": "min"}, {"measurement": "half-life", "setting": "[1]; 40 mg", "value": 55.6, "unit": "min"}, {"measurement": "peak concentration in plasma", "setting": "[1]; intranasal 20 mg", "value": 4.1, "unit": "ng/mL"}, {"measurement": "peak concentration in plasma", "setting": "[1]; intranasal 40 mg", "value": 10.5, "unit": "ng/mL"}, {"measurement": "salivation", "setting": "[2]; highest concentration betahistine group", "value": "salivation was noted in most animals"}, {"measurement": "sneezing", "setting": "[2]; highest dose level", "value": "2/8"}, {"measurement": "AUC", "setting": "[3]; oral 48 mg (0.8 mg/kg), Barak et al. data", "value": 0.121, "unit": "ng·h/mL"}, {"measurement": "AUC(0-5h)", "setting": "[3]; oral 48 mg t.i.d., approximately 0.8 mg/kg, Day 8, Barak et al.", "value": 121, "unit": "pg·h/mL"}]}
